In patent US20250289810A1, “Compounds As NLRP3 Inflammasome Inhibitors And Their Use As Medicaments” (MAM-AGE S.R.L., priority 2022, published 2025):

Legend:
NLRP3 inflammasome = biological target: T1, NLRP3 inflammasome (Mus musculus, UniProt Q8R4B8); test: Inhibition of NLRP3-mediated IL-1β release in BMDMs (LPS + Bz-ATP), ELISA; assay type: cell-based; settings: BMDM; BMDMs from WT mice, LPS + BzATP, compound at 1 μM; read-out: Inhibitory rate of IL-1β release
T1 construct: bone marrow-derived macrophages (BMDMs) from wild type (WT) mice first primed with 1 μg/ml lipopolysaccharide (LPS); endogenous in cells; host or cells: primary BMDMs from wild type mice

THP-1 cells = test: RealTime-Glo MT Cell Viability assay on THP-1 cells; assay type: cell-based, human; settings: 1 μM, 48 hours
Procedure: (§1) Cell viability was evaluated on THP-1 cells using realtime-Glo” MT Cell Viability Assay (Promega Italia, MI). Briefly, the cells were seeded in a 96 multiwell (10×10^4 cells/well), treated with the selected compound of Formula (II), and incubated for 48 hours. After treatment, the cells were incubated for 10 minutes in the incubator with the realtime-Glo” reagent following protocol. The luminescence was measured every 12 hours in the Glomax Multi Detection System Promega. The luminescence signal correlates with the number of metabolically active cells.
as §1, with “compound,” for “compound of Formula (II),”, “cells. The results represent the mean luminescence values (RLU)±SEM.” for “cells.”

NLRC4 inflammasome = biological target: T2, NLRC4 inflammasome (Mus musculus, UniProt Q3UP24); test: NLRC4 inflammasome activation in LPS-primed BMDM transfected with flagellin of S. typhimurium (IL-1β ELISA); assay type: cell-based; settings: LPS 100 ng/ml 3 hours, compound 1 μm 30 minutes, flagellin 100 ng/ml 2 hours
T2 construct: endogenous in cells; host or cells: mouse BMDM, LPS-primed, transfected with S. typhimurium flagellin
Procedure: The selectivity of compound 4 as an inhibitor of NLRP3 was then evaluated with respect to NLRC4 and absent in melanoma 2 (AIM2) inflammasomes. For activation of NLRC4 inflammasome, BMDM were treated with LPS (100 ng/ml) for 3 hours. Subsequently, the culture medium was removed and replaced with a serum-free medium containing compound 4 (1 μm for 30 minutes), finally the cells were transfected with flagellin (100 ng/ml) by S. typhimurium for 2 hours. The supernatant was tested by ELISA. […] The effect of the same compounds was examined on the non-NLR AIM2 inflammasome by transfecting BMDM with the dsDNS analogue Poly (dA:dT).
The selectivity of compounds 6c and 10 of Formula (III) as inhibitors of NLRP3 was then evaluated with respect to NLRC4 inflammasome. For activation of NLRC4 inflammasome, BMDM were treated with LPS (100 ng/ml) for 3 hours. Subsequently the culture medium was removed and replaced with a serum-free medium containing […] (1 μm for 30 minutes), finally the cells were transfected with flagellin (100 ng/ml) by S. typhimurium for 2 hours. The supernatant was tested by ELISA.

T1 sequence (Q8R4B8 whole entry): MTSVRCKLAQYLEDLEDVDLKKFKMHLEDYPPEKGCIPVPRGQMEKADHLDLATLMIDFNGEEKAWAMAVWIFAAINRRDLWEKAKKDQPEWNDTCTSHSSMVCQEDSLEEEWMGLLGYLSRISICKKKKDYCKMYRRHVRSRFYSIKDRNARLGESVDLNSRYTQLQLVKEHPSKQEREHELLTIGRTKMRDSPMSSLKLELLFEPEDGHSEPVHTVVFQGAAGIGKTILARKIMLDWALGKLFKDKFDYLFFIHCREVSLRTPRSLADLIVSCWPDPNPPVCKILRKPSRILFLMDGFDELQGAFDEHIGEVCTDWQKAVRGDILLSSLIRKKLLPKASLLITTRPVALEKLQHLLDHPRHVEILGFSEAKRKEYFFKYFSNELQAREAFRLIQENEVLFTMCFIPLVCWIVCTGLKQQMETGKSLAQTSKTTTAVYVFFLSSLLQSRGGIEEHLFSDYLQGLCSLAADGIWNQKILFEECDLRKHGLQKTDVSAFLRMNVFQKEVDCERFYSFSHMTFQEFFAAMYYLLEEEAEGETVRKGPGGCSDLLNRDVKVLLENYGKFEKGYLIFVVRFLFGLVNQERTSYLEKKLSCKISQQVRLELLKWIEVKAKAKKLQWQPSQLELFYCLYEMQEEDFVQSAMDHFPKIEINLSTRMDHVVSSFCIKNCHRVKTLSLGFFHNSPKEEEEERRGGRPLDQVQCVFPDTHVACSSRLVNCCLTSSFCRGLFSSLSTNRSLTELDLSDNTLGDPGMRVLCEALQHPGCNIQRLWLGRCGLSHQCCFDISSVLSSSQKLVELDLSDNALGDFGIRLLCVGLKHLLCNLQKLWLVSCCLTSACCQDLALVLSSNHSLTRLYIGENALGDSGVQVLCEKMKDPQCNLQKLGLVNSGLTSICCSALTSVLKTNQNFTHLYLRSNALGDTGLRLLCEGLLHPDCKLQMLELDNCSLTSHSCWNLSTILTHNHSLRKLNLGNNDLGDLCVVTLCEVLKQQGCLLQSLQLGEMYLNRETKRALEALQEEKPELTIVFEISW
T2 sequence (Q3UP24 whole entry): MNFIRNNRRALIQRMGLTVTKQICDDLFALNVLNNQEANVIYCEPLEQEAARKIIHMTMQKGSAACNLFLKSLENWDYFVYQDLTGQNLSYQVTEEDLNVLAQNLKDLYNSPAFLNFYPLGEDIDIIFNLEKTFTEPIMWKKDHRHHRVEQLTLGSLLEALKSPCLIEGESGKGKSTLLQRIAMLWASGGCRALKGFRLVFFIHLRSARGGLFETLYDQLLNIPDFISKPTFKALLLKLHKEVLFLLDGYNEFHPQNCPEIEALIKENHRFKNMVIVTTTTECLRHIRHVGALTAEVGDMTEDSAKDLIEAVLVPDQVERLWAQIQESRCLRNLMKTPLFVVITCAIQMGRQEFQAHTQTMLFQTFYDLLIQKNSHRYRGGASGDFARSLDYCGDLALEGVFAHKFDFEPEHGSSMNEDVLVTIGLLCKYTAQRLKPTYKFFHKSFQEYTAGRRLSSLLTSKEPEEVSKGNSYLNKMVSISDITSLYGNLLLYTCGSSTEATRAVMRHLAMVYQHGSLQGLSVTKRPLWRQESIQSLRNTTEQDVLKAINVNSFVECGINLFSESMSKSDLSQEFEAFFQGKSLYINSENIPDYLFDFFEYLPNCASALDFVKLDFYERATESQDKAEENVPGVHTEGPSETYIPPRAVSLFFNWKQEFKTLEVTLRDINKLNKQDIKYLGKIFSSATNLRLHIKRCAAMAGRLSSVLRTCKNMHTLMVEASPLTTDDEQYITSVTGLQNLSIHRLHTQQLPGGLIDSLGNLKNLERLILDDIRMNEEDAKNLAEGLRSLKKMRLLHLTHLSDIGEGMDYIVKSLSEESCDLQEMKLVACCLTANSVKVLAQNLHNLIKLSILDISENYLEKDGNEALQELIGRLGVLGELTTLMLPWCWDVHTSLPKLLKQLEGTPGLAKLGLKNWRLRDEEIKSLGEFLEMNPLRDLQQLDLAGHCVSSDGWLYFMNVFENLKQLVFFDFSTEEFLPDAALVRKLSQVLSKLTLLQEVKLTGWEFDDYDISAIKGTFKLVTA

**Q.** For `O=C(Nc1c2c(cc3c1CCC3)CCC2)C1CCCN1S(=O)(=O)c1ccc([N+](=O)[O-])cc1` (stereo not drawn) [Compound 3a of Formula (IV), N-(1,2,3,5,6,7-hexahydro-s-indacen-4-yl)-1-((4-nitrophenyl)sulfonyl)pyrrolidine-2-carboxamide], which inhibition at 1 µM (NLRP3 inflammasome) is on record?
**A.** 25.7%

**Q.** For `O=C(Nc1c2c(cc3c1CCC3)CCC2)C1CCCCN1S(=O)(=O)c1ccc([N+](=O)[O-])cc1` (stereo not drawn) [Compound 3b of Formula (IV), N-(1,2,3,5,6,7-hexahydro-s-indacen-4-yl)-1-((4-nitrophenyl)sulfonyl)piperidine-2-carboxamide], which inhibition at 1 µM (NLRP3 inflammasome) is on record?
**A.** 52.4%

**Q.** For `Nc1ccc(S(=O)(=O)N2CCCC2C(=O)Nc2c3c(cc4c2CCC4)CCC3)cc1` (stereo not drawn) [Compound 4a of Formula (IV), 1-((4-aminophenyl)sulfonyl)-N-(1,2,3,5,6,7-hexahydro-s-indacen-4-yl)pyrrolidine-2-carboxamide], which inhibition at 1 µM (NLRP3 inflammasome) is on record?
**A.** 41.6%

**Q.** Which inhibition at 1 µM (NLRP3 inflammasome) does the source give for `Nc1ccc(S(=O)(=O)N2CCCCC2C(=O)Nc2c3c(cc4c2CCC4)CCC3)cc1` (stereo not drawn) [Compound 4b of Formula (IV), 1-((4-aminophenyl)sulfonyl)-N-(1,2,3,5,6,7-hexahydro-s-indacen-4-yl)piperidine-2-carboxamide] here?
**A.** 25.4%

**Q.** What does the source list for `CC(C)[C@H](NS(=O)(=O)c1ccc([N+](=O)[O-])cc1)C(=O)Nc1c2c(cc3c1CCC3)CCC2` [Compound 6c of Formula (III), (S)—N-(1,2,3,5,6,7-hexahydro-s-indacen-4-yl)-3-methyl-2-((4-nitrophenyl)sulfonamido)butanamide]?
**A.** Cytotoxicity / cell viability of THP-1 cells (THP-1 cells): no cytotoxicity; Effect on activation of NLRC4 inflammasome triggered by flagellin S. typhimurium (NLRC4 inflammasome): no effect

**Q.** Which inhibition at 1 µM (NLRP3 inflammasome) does the source give for `CC(C)C[C@H](NS(=O)(=O)c1ccc([N+](=O)[O-])cc1)C(=O)Nc1c2c(cc3c1CCC3)CCC2` [Compound 6e of Formula (III), (S)—N-(1,2,3,5,6,7-hexahydro-s-indacen-4-yl)-4-methyl-2-((4-nitrophenyl)sulfonamido)pentanamide] here?
**A.** 53.9%

**Q.** `O=C(Nc1c2c(cc3c1CCC3)CCC2)[C@@H](NS(=O)(=O)c1ccc([N+](=O)[O-])cc1)c1ccccc1` [Compound 6f of Formula (III), (S)—N-(1,2,3,5,6,7-hexahydro-s-indacen-4-yl)-2-((4-nitrophenyl)sulfonamido)-2-phenylacetamide] was tested. Which inhibition at 1 µM (NLRP3 inflammasome) did it give?
**A.** 44.8%

**Q.** For `O=C(Nc1c2c(cc3c1CCC3)CCC2)[C@H](Cc1ccccc1)NS(=O)(=O)c1ccc([N+](=O)[O-])cc1` [Compound 6g of Formula (III), (S)—N-(1,2,3,5,6,7-hexahydro-s-indacen-4-yl)-2-((4-nitrophenyl)sulfonamido)-3-phenylpropanamide], which inhibition at 1 µM (NLRP3 inflammasome) is on record?
**A.** 19.8%

**Q.** For `O=C(Nc1c2c(cc3c1CCC3)CCC2)[C@@H](Cc1ccccc1)NS(=O)(=O)c1ccc([N+](=O)[O-])cc1` [Compound 6h of Formula (III), (R)—N-(1,2,3,5,6,7-hexahydro-s-indacen-4-yl)-2-((4-nitrophenyl)sulfonamido)-3-phenylpropanamide], which inhibition at 1 µM (NLRP3 inflammasome) is on record?
**A.** 49.5%

**Q.** How did the inhibition at 1 µM (NLRP3 inflammasome) turn out when `O=C(CCNS(=O)(=O)c1ccc([N+](=O)[O-])cc1)Nc1c2c(cc3c1CCC3)CCC2` [Compound 6k of Formula (III), N-(1,2,3,5,6,7-hexahydro-s-indacen-4-yl)-3-((4-nitrophenyl)sulfonamido)propanamide] was run?
**A.** 36.5%

**Q.** With `C[C@H](NS(=O)(=O)c1ccc(N)cc1)C(=O)Nc1c2c(cc3c1CCC3)CCC2` [Compound 7b of Formula (III), (S)-2-((4-aminophenyl)sulfonamido)-N-(1,2,3,5,6,7-hexahydro-s-indacen-4-yl)propanamide] as the compound, how does the inhibition at 1 µM (NLRP3 inflammasome) read?
**A.** 17.3%

**Q.** Which inhibition at 1 µM (NLRP3 inflammasome) does the source give for `CC(C)[C@H](NS(=O)(=O)c1ccc(N)cc1)C(=O)Nc1c2c(cc3c1CCC3)CCC2` [Compound 7c of Formula (III), (S)-2-((4-aminophenyl)sulfonamido)-N-(1,2,3,5,6,7-hexahydro-s-indacen-4-yl)-3-methylbutanamide] here?
**A.** 50.2%

**Q.** For `CC(C)[C@@H](NS(=O)(=O)c1ccc(N)cc1)C(=O)Nc1c2c(cc3c1CCC3)CCC2` [Compound 7d of Formula (III), (R)-2-((4-aminophenyl)sulfonamido)-N-(1,2,3,5,6,7-hexahydro-s-indacen-4-yl)-3-methylbutanamide], which inhibition at 1 µM (NLRP3 inflammasome) is on record?
**A.** 8.4%

**Q.** Which inhibition at 1 µM (NLRP3 inflammasome) does the source give for `CC(C)C[C@H](NS(=O)(=O)c1ccc(N)cc1)C(=O)Nc1c2c(cc3c1CCC3)CCC2` [Compound 7e of Formula (III), (S)-2-((4-aminophenyl)sulfonamido)-N-(1,2,3,5,6,7-hexahydro-s-indacen-4-yl)-4-methylpentanamide] here?
**A.** 31.5%

**Q.** `Nc1ccc(S(=O)(=O)N[C@H](C(=O)Nc2c3c(cc4c2CCC4)CCC3)c2ccccc2)cc1` [Compound 7f of Formula (III), (S)-2-((4-aminophenyl)sulfonamido)-N-(1,2,3,5,6,7-hexahydro-s-indacen-4-yl)-2-phenylacetamide] was tested. Which inhibition at 1 µM (NLRP3 inflammasome) did it give?
**A.** 16.1%

**Q.** `Nc1ccc(S(=O)(=O)N[C@@H](Cc2ccccc2)C(=O)Nc2c3c(cc4c2CCC4)CCC3)cc1` [Compound 7g of Formula (III), (S)-2-((4-aminophenyl)sulfonamido)-N-(1,2,3,5,6,7-hexahydro-s-indacen-4-yl)-3-phenylpropanamide] was tested. Which inhibition at 1 µM (NLRP3 inflammasome) did it give?
**A.** 38%

**Q.** With `Nc1ccc(S(=O)(=O)N[C@H](Cc2ccccc2)C(=O)Nc2c3c(cc4c2CCC4)CCC3)cc1` [Compound 7h of Formula (III), (R)-2-((4-aminophenyl)sulfonamido)-N-(1,2,3,5,6,7-hexahydro-s-indacen-4-yl)-3-phenylpropanamide] as the compound, how does the inhibition at 1 µM (NLRP3 inflammasome) read?
**A.** 46.4%

**Q.** Which inhibition at 1 µM (NLRP3 inflammasome) does the source give for `Nc1ccc(S(=O)(=O)NCCC(=O)Nc2c3c(cc4c2CCC4)CCC3)cc1` [Compound 7k of Formula (III), 3-((4-aminophenyl)sulfonamido)-N-(1,2,3,5,6,7-hexahydro-s-indacen-4-yl)propanamide] here?
**A.** 22.3%

**Q.** Which inhibition at 1 µM (NLRP3 inflammasome) does the source give for `O=C(Nc1c2c(cc3c1CCC3)CCC2)[C@H](Cc1ccc(O)cc1)NS(=O)(=O)c1ccc([N+](=O)[O-])cc1` [Compound 8 of Formula (III), (S)—N-(1,2,3,5,6,7-hexahydro-s-indacen-4-yl)-3-(4-hydroxyphenyl)-2-((4-nitrophenyl)sulfonamido)propanamide] here?
**A.** 34.7%

**Q.** For `NCCCC[C@H](NS(=O)(=O)c1ccc([N+](=O)[O-])cc1)C(=O)Nc1c2c(cc3c1CCC3)CCC2` [Compound 9 of Formula (III), (S)-6-amino-N-(1,2,3,5,6,7-hexahydro-s-indacen-4-yl)-2-((4-nitrophenyl)sulfonamido)hexanamide], which inhibition at 1 µM (NLRP3 inflammasome) is on record?
**A.** 47.5%

**Q.** With `Nc1ccc(S(=O)(=O)N[C@@H](Cc2ccc(O)cc2)C(=O)Nc2c3c(cc4c2CCC4)CCC3)cc1` [Compound 10 of Formula (III), (S)-2-((4-aminophenyl)sulfonamido)-N-(1,2,3,5,6,7-hexahydro-s-indacen-4-yl)-3-(4-hydroxyphenyl)propanamide] as the compound, how does the “Cytotoxicity / cell viability of THP-1 cells” value (THP-1 cells) read?
**A.** no cytotoxicity

**Q.** And the “Effect on activation of NLRC4 inflammasome triggered by flagellin S. typhimurium” value (NLRC4 inflammasome)?
**A.** no effect

**Q.** With `NCCCC[C@H](NS(=O)(=O)c1ccc(N)cc1)C(=O)Nc1c2c(cc3c1CCC3)CCC2` [Compound 11 of Formula (III), (S)-6-amino-2-((4-aminophenyl)sulfonamido)-N-(1,2,3,5,6,7-hexahydro-s-indacen-4-yl)hexanamide] as the compound, how does the inhibition at 1 µM (NLRP3 inflammasome) read?
**A.** 28.4%
